Assay results from patent publication US12053529B2, “Amino-reactive positively charged ATRP initiators that maintain their positive charge during synthesis of biomacro-initiators” (Carnegie Mellon University, priority 2018, dated 2024).
Starred links: 1 amine or outer side, 2 acyl side, 3 side chain; linkers in the order of their positions; H or OH if unused. Residues, ends and D or L forms follow the SMILES beside them. *: point of attachment. pNA = O=[N+]([O-])c1ccc(N*)cc1; Suc = O=C(CCC(=O)[*:2])[*:1]

How the values were obtained:
avidin, native = assay: biotin binding rate, native avidin
Excerpt: (§1) Avidin: Avidin (Avi) is a tetrameric protein (homo-4-mer) that is approximately 66 kDa in its tetrameric form and is found in the egg whites of birds, reptiles, and amphibians. Its highly specific activity arises from binding strongly to biotin and this binding event is one of the strongest noncovalent interactions known, making avidin extremely useful for biochemical assays/probes and protein purification chemistries. Each sub-unit of avidin can bind to one biotin molecule. In agreement with CT and Lyz, the number of initiator modifications when using the positive initiator was less than that achieved with neutral initiator (4.3 versus 7.9). The activities of avidin samples were measured next using two different techniques (TABLE 6). Biotin binding rates were determined kinetically and total equilibrium biotin binding were determined spectophotometrically using 4′-hydroxyazobenzene-2-carboxylic acid (HABA) dye. Since the avidin-biotin binding is so strong, the displacement of HABA by biotin in the active site can be measured and the amount of bound biotin can be determined by the decrease in absorbance at 500 nm. The biotin binding rate of Avi-neutral initiator was decreased to 0.48 s^−1 from 105.2 s^−1 for native avidin.

[1] = system: avidin, positive initiator (+); assay: biotin binding rate, avidin-positive initiator
Excerpt: as §1

[2] = system: avidin, neutral initiator (N)-pCBMA; assay: biotin binding rate, avidin (N)-pCBMA
Excerpt: as §1

[3] = system: avidin, positive initiator (+)-pCBMA; assay: biotin binding rate, avidin (+)-pCBMA
Excerpt: as §1

[4] = molecular target: α-chymotrypsin (CT) from bovine pancreas, CT-mixed initiator (average of 9 neutral and 5 positive initiators per CT) (Bos taurus, UniProt P00766); assay: Michaelis-Menten kinetics, Suc-AAPF-pNA hydrolysis, CT-mixed initiator; assay type: biochemical; settings: pH 8, 37° C.
Description: (§2) CT and Lysozyme were used as received. AChE and Uricase were dialyzed in 25 mM sodium phosphate (pH 7.0) using a 25 kDa molecular weight cutoff dialysis tube in a refrigerator for 24 hours and then lyophilized. Copper (II) chloride, sodium ascorbate, 1,1,4,7,10,10-hexamethyltriethylenetetramine (HMTETA), 2-bromo-2-methylpropionyl bromide, 3-(dimethylamino)-1-propylamine, N,N′-diisopropylcarbodimine, fluorescamine, acetylthiocholine iodide, 5,5′-dithiobis(2-nitrobenzoic acid) (DTNB) were purchased from Sigma Aldrich. 4-bromobutyric acid and N-hydroxysuccinimide were purchased from TCI USA (Portland, OR). Micro BCA assay kit was purchased from Thermo Fisher Scientific.
(§3) CT: N-succinyl-Ala-Ala-Pro-Phe-p-nitroanilide (Suc-AAPF-pNA; SEQ ID NO:1) was used as a substrate for CT. Substrate (0-20 mg/mL in DMSO, 30 μL) was added to a 1.5 mL cuvette with sodium phosphate buffer (pH 8, 100 mM). […] The initial substrate hydrolysis rate was measured in triplicate by recording the increase in absorbance at 412 nm over the first 60 seconds after mixing using a Lambda 2 Perkin Elmer ultraviolet-visible spectrometer equipped with a temperature-controlled cell holder at 37° C. Michaelis-Menten parameters were determined using nonlinear curve fitting of initial hydrolysis rate versus substrate concentration in GraphPad. […]

[5] = molecular target: α-chymotrypsin (CT) from bovine pancreas, CT-positive initiator-pCBMA (Bos taurus, UniProt P00766); assay: Michaelis-Menten kinetics, Suc-AAPF-pNA hydrolysis, CT-positive initiator-pCBMA; assay type: biochemical; settings: pH 8, 37° C.
Description: as §2, with “Scientific. […]” for “Scientific.”
(§4) CT-pCBMA and pSMA conjugate synthesis: A solution of monomer (230 mg for CBMA and 246 mg for SMA, 1.0 mmol respectively) and CT-initiator (23 mg for neutral and 25 mg for positive initiator, 10 μmol of initiator) in 100 mM sodium phosphate (20 mL, pH 7) was sealed and bubbled with nitrogen gas in an ice bath for 30 minutes. […] Conjugate CT content was determined by BCA assay as described elsewhere (Lee et al. 2005, supra). […]
(§5) CT: N-succinyl-Ala-Ala-Pro-Phe-p-nitroanilide (Suc-AAPF-pNA; SEQ ID NO:1) was used as a substrate for CT. […] Michaelis-Menten parameters were determined using nonlinear curve fitting of initial hydrolysis rate versus substrate concentration in GraphPad. […]

[6] = molecular target: α-chymotrypsin (CT) from bovine pancreas, CT-neutral initiator (CT(N)) (Bos taurus, UniProt P00766); assay: Michaelis-Menten kinetics, Suc-AAPF-pNA hydrolysis, CT-neutral initiator; assay type: biochemical; settings: pH 8, 37° C.; CT-neutral initiator vs native CT
Description: as §2, with “Scientific. […]” for “Scientific.”
as §3, with “CT.” for “CT. Substrate (0-20 mg/mL in DMSO, 30 μL) was added to a 1.5 mL cuvette with sodium phosphate buffer (pH 8, 100 mM).”

[7] = molecular target: α-chymotrypsin (CT) from bovine pancreas, CT-positive initiator (CT(+)) (Bos taurus, UniProt P00766); assay: Michaelis-Menten kinetics, Suc-AAPF-pNA hydrolysis, CT-positive initiator; assay type: biochemical; settings: pH 8, 37° C.; CT-positive initiator vs native CT
Description: as §2, with “Scientific. […]” for “Scientific.”
as §3, with “CT.” for “CT. Substrate (0-20 mg/mL in DMSO, 30 μL) was added to a 1.5 mL cuvette with sodium phosphate buffer (pH 8, 100 mM).”

[8] = molecular target: α-chymotrypsin (CT) from bovine pancreas, CT-neutral initiator-pCBMA (Bos taurus, UniProt P00766); assay: Michaelis-Menten kinetics, Suc-AAPF-pNA hydrolysis, CT-neutral initiator-pCBMA; assay type: biochemical; settings: pH 8, 37° C.
Description: as §2, with “Scientific. […]” for “Scientific.”
as §4, §5

[9] = molecular target: α-chymotrypsin (CT) from bovine pancreas, CT-positive initiator-pSMA (Bos taurus, UniProt P00766); assay: Michaelis-Menten kinetics, Suc-AAPF-pNA hydrolysis, CT-positive initiator-pSMA; assay type: biochemical; settings: pH 8, 37° C.; CT-positive initiator-pSMA vs CT-neutral initiator-pSMA
Description: as §2, with “Scientific. […]” for “Scientific.”
as §4, §5

[10] = system: T1, C[C@H](NC(=O)CCC(=O)O)C(=O)N[C@@H](C)C(=O)N1CCC[C@H]1C(=O)N[C@@H](Cc1ccccc1)C(=O)Nc1ccc([N+](=O)[O-])cc1; assay: Michaelis-Menten kinetics, Suc-AAPF-pNA hydrolysis, native CT; assay type: biochemical, bovine; settings: other: pH 8, 37° C.
T1 construct: mature A, B and C chains of chymotrypsinogen A; unmodified
Description: as §2
CT: N-succinyl-Ala-Ala-Pro-Phe-p-nitroanilide (Suc-AAPF-pNA; SEQ ID NO:1) was used as a substrate for CT. Substrate (0-20 mg/mL in DMSO, 30 μL) was added to a 1.5 mL cuvette with sodium phosphate buffer (pH 8, 100 mM). Native CT, CT-initiators, and CT-polymers (0.1 mg/mL protein, 4 μM, 10 μL) was added to the cuvette with substrate and buffer. The initial substrate hydrolysis rate was measured in triplicate by recording the increase in absorbance at 412 nm over the first 60 seconds after mixing using a Lambda 2 Perkin Elmer ultraviolet-visible spectrometer equipped with a temperature-controlled cell holder at 37° C. Michaelis-Menten parameters were determined using nonlinear curve fitting of initial hydrolysis rate versus substrate concentration in GraphPad.
Michaelis-Menten kinetics were measured at pH 8 and 37° C. using Succinyl-Ala-Ala-Pro-Phe-p-nitroanilide (Suc-AAPF-pNA; SEQ ID NO:1), a hydrophobic and negatively charged substrate for CT that binds to the hydrophobic S1 binding pocket and is then cleaved by the catalytic triad (Ser 195, His 57, Asp 102). […] The observed decrease in KM upon neutral initiator attachment could have been the result of the hydrophobicity of the initiator. The partition coefficient (log D) of a lysine side chain at pH 8.0 is −1.00. After covalent attachment of the neutral initiator, the log D value of the new product rose to 1.82. […]

O=C(O)CCCC[C@@H]1SC[C@@H]2NC(=O)N[C@@H]21 [biotin]
biotin binding rate (avidin, native): 92.5 ± 14.1 s⁻¹
increase in biotin binding rate compared to Avi-neutral initiator ([1]; Avi-positive initiator vs Avi-neutral initiator): 1.7 fold
biotin binding rate ([1]; avidin (+)): 1.69 ± 0.04 s⁻¹
biotin binding rate [2]: 0.23 ± 0.07 s⁻¹
biotin binding rate [3]: 1.64 ± 0.08 s⁻¹

C[C@H](NC(=O)CCC(=O)O)C(=O)N[C@@H](C)C(=O)N1CCC[C@H]1C(=O)N[C@@H](Cc1ccccc1)C(=O)Nc1ccc([N+](=O)[O-])cc1 [Suc-AAPF-pNA, N-succinyl-Ala-Ala-Pro-Phe-p-nitroanilide] (Suc-AAPF-pNA)
kcat [4]: 16.7 ± 0.4 s⁻¹
kcat/KM [4]: 200000 ± 10000 M⁻¹ s⁻¹
kcat/KM ([5]; CT-positive initiator-pCBMA): 420000 ± 20000 M⁻¹ s⁻¹
overall catalytic efficiency versus native CT ([5]; CT-positive initiator-pCBMA vs native CT): nearly double that of native CT
change in KM versus native CT [6]: decrease in KM by half
change in KM versus native CT [7]: decrease in KM by half
kcat/KM [8]: 300000 ± 10000 M⁻¹ s⁻¹
overall activity (kcat and KM) versus CT-neutral initiator-pSMA [9]: ~20 fold

α-chymotrypsin (CT) from bovine pancreas (type II), native (Bos taurus)
Km [10]: 107 ± 5 µM
kcat [10]: 26.6 ± 0.3 s⁻¹
kcat/Km [10]: 250000 ± 10000 M⁻¹ s⁻¹
